Key:
[1] = tested on: H. contortus xL3 to L4 development; test: High throughput screen, larval development and phenotype at 168 h; type: cell-based, Haemonchus contortus; conditions: for inhibition at 20 µM: Haemonchus contortus, development to L4; for Abnormal phenotype detected at 168 h: 20 µM
Method: Following the measurement of xL3 motility, plates were incubated again for 78 h (i.e., a total of 168 h) under the same conditions. Thereafter, 40 µl of 1% (v/v) iodine were added to individual wells, and worms examined using a light microscope (M80, Leica) at 60-times magnification to assess larval development, based on the presence/absence of a well-developed pharynx ([Sommerville, 1966]), and/or phenotypic alterations with respect to untreated xL3s.

[2] = tested on: exsheathed third-stage larvae (xL3s) of H. contortus; test: High throughput screen, xL3 motility (infrared light beam-interference); type: cell-based; conditions: Haemonchus contortus, 90 h, read-out: Motility reduction at 90 h (%)
Method: An established platform was used for compound screening ([Taki et al., 2021a]). Using a semi-automated liquid handling robot (VIAFLO ASSIST PLUS, Integra Biosciences), compounds were individually diluted to […] in LB* containing 0.2% (v/v) DMSO and then dispensed in 20 µl into the wells of sterile 384-well flat bottom microtitre plates (cat. no. 3680; Corning); 320 compounds were arrayed on each plate, with 16 wells being negative controls (with LB* + 0.2% DMSO) and four wells containing each monepantel (Zolvix; Elanco), moxidectin (Cydectin; Virbac), monepantel + abamectin (Zolvix Plus; Elanco) and compound MIPS-0018666 (abbreviated here as M-666) ([Le et al., 2018]) as positive controls (20 µM). Following the dilution and dispensing of compounds into plates, 80 H. contortus xL3s in 20 μl of LB* were transferred to individual wells; after this step, the final concentrations were 20 µM of test- or positive-control compound, and 0.2% of DMSO. During dispensing, xL3s were maintained in a homogenous suspension using a constant stream of bubbles produced employing an aquarium pump (H2Pro). Plates containing H. contortus xL3s were incubated at 38 °C, 10% (v/v) CO2 and >90% relative humidity.
After 90 h of incubation with compounds (20 μM), H. contortus xL3s motility was measured for 15 min in individual wells of each plate by infrared light beam-interference ([Simonetta and Golombek, 2007]) using a WMicroTracker ONE instrument (Phylumtech). Raw data captured were normalised against measurements obtained for the positive (monepantel) and negative (LB* + 0.2% DMSO) controls to remove plate-to-plate variation by calculating the percentage of motility using the program GraphPad Prism (v.9.1.2; GraphPad Software). A compound was considered active (“hit”) if it reduced larval motility by ≥ 70%. To continually assess the performance of the screening assay, the Z′-factor ([Zhang et al., 1999]) was calculated (using data for the DMSO and the M-666 controls) for individual plates (n = 43) and was consistently ≥0.7; reliable assays achieve a Z′-factor of between 0.5 and 1. The signal to background (S/B) ratio (for the same controls) ([Sui and Wu, 2007]) was consistently >200.

SMILES	inhibition at 20 µM [1] [%]	inhibition at 20 µM [2] [%]	Abnormal phenotype detected at 168 h [1]
N#CC(C#N)=NNc1ccc(C(F)(F)F)cc1 [MBHF-hit1, 2-{2-[4-(trifluoromethyl)phenyl]hydrazono}malononitrile]	100	102	–
C(#Cc1ccc(-c2cc[nH]n2)s1)c1ccccc1 [MBHF-hit2, 3-[5-(2-phenyleth-1-ynyl)-2-thienyl]-1H-pyrazole]	100	98.4	Cur, Evi
CC(=NOc1nc(-c2ccccc2)ns1)c1cccs1 [MBHF-hit3, 1-(2-thienyl)-1-ethanone O-(3-phenyl-1,2,4-thiadiazol-5-yl)oxime]	< 80	96.4	Cur, Evi
CCCCOc1ccc(-c2ccc(C#N)cc2)cc1 [MBHF-hit4, 4'-butoxy[1,1'-biphenyl]-4-carbonitrile]	100	95.6	Cur, Evi
N#CC(=NNc1ccc(Cl)cc1Cl)C(=O)c1ccc(Cl)cc1 [MBHF-hit5, 3-(4-chlorophenyl)-2-[2-(2,4-dichlorophenyl)hydrazono]-3-oxopropanenitrile]	100	95.2	–
C(#Cc1ccc(-c2ccn[nH]2)cc1)c1ccccc1 [MBHF-hit6, 5-[4-(2-phenyleth-1-ynyl)phenyl]-1H-pyrazole]	100	94	Cur, Evi
CSc1c(-c2ccc(Cl)cc2)[nH]c2ccccc12 [MBHF-hit7, 2-(4-chlorophenyl)-3-(methylthio)-1H-indole]	100	91.9	Cur, Evi
N#Cc1c(Cl)c(Cl)c(Cl)c(Cl)c1C#N [MBHF-hit8, 3,4,5,6-tetrachlorophthalonitrile]	< 80	91	–
O=C(C=CSc1ccc(Cl)cc1)c1cccs1 [MBHF-hit9, 3-[(4-chlorophenyl)thio]-1-(2-thienyl)prop-2-en-1-one]	100	89.4	–
O=C(c1cc(C(F)(F)F)cc(C(F)(F)F)c1)N1CCC(O)(c2ccc(Cl)cc2)CC1 [MBHF-hit10, [3,5-bis(trifluoromethyl)phenyl][4-(4-chlorophenyl)-4-hydroxypiperidino]methanone]	< 80	84.2	–
Nc1ccccc1C(=O)N1CCN(c2ccc([N+](=O)[O-])cn2)CC1 [MBHF-hit11, (2-aminophenyl)[4-(5-nitro-2-pyridyl)piperazino]methanone]	< 80	82.7	–
O=C(Nc1ccc(F)cc1)Nc1cnn(-c2ccc([N+](=O)[O-])cc2)c1C(F)(F)F [MBHF-hit12, N-(4-fluorophenyl)-N'-[1-(4-nitrophenyl)-5-(trifluoromethyl)-1H-pyrazol-4-yl]urea]	80 to 99	82.3	Cur, Evi
CC1=CSC(=C(C#N)C(=O)c2ccccc2Cl)N1c1ccccc1Cl [MBHF-hit13, 3-(2-chlorophenyl)-2-[3-(2-chlorophenyl)-4-methyl-1,3-thiazol-2(3H)-ylidene]-3-oxopropanenitrile]	< 80	78.8	–
Cc1ccc2oc(=O)n(CCC(N)=NOC(=O)c3ccccc3)c2c1 [MBHF-hit14, N'-(benzoyloxy)-3-[5-methyl-2-oxo-1,3-benzoxazol-3(2H)-yl]propanimidamide]	< 80	81.6	–
NC(=O)C1CCN(C(=O)c2ccc(Oc3cc(Cl)cc(Cl)c3)o2)CC1 [MBHF-hit15, 1-{[5-(3,5-dichlorophenoxy)-2-furyl]carbonyl}-4-piperidinecarboxamide]	< 80	78.7	–
COc1ccc(SCc2nsc(Sc3ccc(OC)cc3)n2)cc1 [MBHF-hit16, 5-[(4-methoxyphenyl)thio]-3-{[(4-methoxyphenyl)thio]methyl}-1,2,4-thiadiazole]	80 to 99	78.5	Cur, Evi
N#CC(=NNc1cccc(C(F)(F)F)c1)C(=O)c1csc(-c2cccnc2)n1 [MBHF-hit18, 3-oxo-3-[2-(3-pyridyl)-1,3-thiazol-4-yl]-2-{2-[3-(trifluoromethyl)phenyl]hydrazono}propanenitrile]	< 80	77.1	–
CCCc1ccc(-c2ccc(C#N)cc2)nc1 [MBHF-hit19, 4-(5-propyl-2-pyridyl)benzonitrile]	< 80	76.9	–
O=C(c1ccc(-c2cccs2)s1)c1ccc(F)cc1F [MBHF-hit20, (2,4-difluorophenyl)[5-(2-thienyl)-2-thienyl]methanone]	100	76.7	Str, Cur
O=C1c2ccccc2C(=O)N1CCSCc1cccc(C(F)(F)F)c1 [MBHF-hit21, 2-(2-{[3-(trifluoromethyl)benzyl]thio}ethyl)-1H-isoindole-1,3(2H)-dione]	100	76.5	Cur, Evi
CC12NC(=O)NC1(C)NC(=O)N2 (stereo not drawn) [MBHF-hit22, 3a,6a-dimethylperhydroimidazo[4,5-d]imidazole-2,5-dione]	< 80	76.3	–
CC(C)c1cc(Br)c(NC(=O)NCc2ccco2)c(Br)c1 [MBHF-hit23, N-(2,6-dibromo-4-isopropylphenyl)-N'-(2-furylmethyl)urea]	< 80	74.8	–
Cc1nc2c(cnn2-c2ccccc2)c(=O)o1 [MBHF-hit24, 6-methyl-1-phenylpyrazolo[3,4-d][1,3]oxazin-4(1H)-one]	< 80	74.6	–
CCCCCc1cnc(-c2ccc(C#N)cc2)nc1 [MBHF-hit25, 4-(5-pentylpyrimidin-2-yl)benzonitrile]	100	74.5	Cur, Evi
Clc1ccc(Oc2ccnc3cc(Cl)ccc23)cc1 [MBHF-hit26, 7-chloro-4-(4-chlorophenoxy)quinoline]	80 to 99	73.9	Cur, Evi
COc1c(C(=O)NCc2ccc(Cl)cc2)csc1Cl [MBHF-hit27, 5-chloro-N-(4-chlorobenzyl)-4-methoxy-3-thiophenecarboxamide]	< 80	73.4	Cur, Evi
CC(=O)c1ccc(NC(=O)CSc2nnc(-c3ccco3)n2C)cc1 [MBHF-hit28, N-(4-acetylphenyl)-2-{[5-(2-furyl)-4-methyl-4H-1,2,4-triazol-3-yl]sulfanyl}acetamide]	< 80	72.7	–
CS(=O)(=O)c1ccc2ccn(O)c2c1 [MBHF-hit29, 6-(methylsulfonyl)-1H-indol-1-ol]	< 80	72	–
O=S1(=O)CC=C(Cl)C1 [MBHF-hit30, 3-chloro-2,5-dihydro-1H-1lambda~6~-thiophene-1,1-dione]	< 80	71.5	–
O=[N+]([O-])c1ccc2c(c1)CCN2S(=O)(=O)c1ccccc1 [MBHF-hit31, 5-nitro-1-(phenylsulfonyl)indoline]	< 80	71.5	–

Reference: PMC9616048, “Thermal proteome profiling reveals Haemonchus orphan protein HCO_011565 as a target of the nematocidal small molecule UMW-868” (Frontiers in Pharmacology, 2022)
